Results reported in patent US20040214850A1, “1-glyoxylamide indolizines for treating cancer” (Synta Pharmaceuticals Corp., priority 2001, published 2004).
Read-outs that look alike come from different tables or passages of the source.

Experiments:
[1] = system: MES-SA/DX5 (multi-drug resistant human uterine sarcoma cell line); assay: In vitro activity against multi-drug resistant cell line MES-SA/DX5; type: cell-based
Procedure: (§1) The cell lines were maintained in RPMI1640 (GIBCO) supplemented with 10% FCS, 100 units/ml penicillin, 100 ug/ml streptomycin, and 2 mM L-glutamine. The cells were split every third day and diluted to a concentration of 2×10^5 cells/ml one day before experiment. All experiments were performed on exponentially growing cell culture. Cell densities were 2.5×10^4 cells/ml in all experiment.
(§2) A stock solution of Compound (1) and a stock solution of Taxol (positive control) were prepared by dissolving the compound at a concentration of 1 mM in 100% DMSO. Final concentrations were obtained by diluting the stock solution directly into the tissue culture medium. Cells were incubated with varying concentrations of the compounds for 72 hours and the IC50 was determined by MTS (i.e. 3-(4,5,-dimethylthiazol-2-yl)-2,5-diphenyl tetrazolium bromide) assay. IC50 stands for the concentration of compound required to inhibit 50% tumor cell growth.
(§3) In vitro activity was determined in two MDR (Multi Drug Resistant) human cancer cell lines. HL-60/TX1000 was isolated in vitro by subculturing HL-60 in progressively higher concentration of Taxol. HL-60/TX1000 cells over-express mdr-1 mRNA and p-glycoprotein, as determined by western blot and immunofluorescence labeling with antiPGP antibodies. The cell is cross-resistant to Taxol, Vincristine, Adriamycin, Etoposide and Doxorubicin. MES-SA/Dx5 was established in the presence of increasing concentrations of Doxorubicin. […] MES-SA/Dx5 was purchased from ATCC.
(§4) The procedure for culturing the cells and assaying cancer cell growth inhibition were as described in Example 3.
The protocol described in Examples 9-10 was used to assay inhibition by Compounds (2)-(8) on the growth of the multidrug resistant cancer cell line MES-SA/DX5, which is a MDR uterine sarcoma cell line.

[2] = system: DU-145 (human prostate cancer); assay: In vitro anti-cancer activity, MTS growth inhibition assay, DU-145; type: cell-based
Procedure: (§5) The in vitro activity of the compounds was determined in the following seven human cancer cell lines. MDA435 (human breast cancer), MIP101 (human colon cancer), HL-60 (human myeloid leukemia), U937 (human leukemia), p388 (murine leukemia), DU-145 (human prostate cancer), MES-SA (human uterine sarcoma) were obtained from ATCC (American Type of Culture Collection).
as §1, §2
(§6) The protocol described in Examples 9-10 was used to assay inhibition by Compounds (20) (21) (24) and (28) on the growth of cancer cell lines MES-SA (human uterine sarcoma cell line) and DU-145 (human prostate cancer).

[3] = system: MES-SA (human uterine sarcoma); assay: In vitro anti-cancer activity, MTS growth inhibition assay, MES-SA; type: cell-based
Procedure: as §5, §1, §2, §6

[4] = system: MES-SA and DU-145; assay: in vitro activity over MES-SA and DU-145; type: cell-based; conditions: Homo sapiens; range over both cell lines; read-out: IC50 against MES-SA and DU-145
Procedure: as §1, §2, §6

[5] = system: MDA435 (human breast cancer); assay: In vitro anti-cancer activity, MTS growth inhibition assay, MDA-435; type: cell-based; conditions: MDA-435 cells, 72 hours
Procedure: as §5, §1, §2

[6] = system: MIP101 (human colon cancer); assay: In vitro anti-cancer activity, MTS growth inhibition assay, MIP-101; type: cell-based; conditions: MIP-101 cells, 72 hours
Procedure: as §5, §1, §2

[7] = system: HL-60 (human myeloid leukemia); assay: In vitro anti-cancer activity, MTS growth inhibition assay, HL-60; type: cell-based; conditions: HL-60 cells, 72 hours
Procedure: as §5, §1, §2

[8] = system: U937 (human leukemia); assay: In vitro anti-cancer activity, MTS growth inhibition assay, U-937; type: cell-based; conditions: U-937 cells, 72 hours
Procedure: as §5, §1, §2

[9] = system: p388 (murine leukemia); assay: In vitro anti-cancer activity, MTS growth inhibition assay, p388; type: cell-based; conditions: Mus musculus, p388 cells, 72 hours
Procedure: as §5, §1, §2

[10] = system: HL-60/TX1000 (multi-drug resistant human myeloid leukemia cell line); assay: In vitro activity against multi-drug resistant cell line HL-60/TX1000; type: cell-based; conditions: HL60/TX1000, HL-60/TX1000 MDR cells (Table 2)
Procedure: as §1, §2, §3, §4

[11] = system: MDR cell lines (MES-SA/DX5, HL-60/TX1000); assay: in vitro activity over the two MDR cell lines; type: cell-based, human; conditions: Homo sapiens; range over MES-SA/DX5 and HL-60/TX1000; read-out: IC50 against the MDR cell lines
Procedure: as §1, §2, §3, §4

[12] = MES-SA/DX5 MDR cells (Table 3, Example 12)
[13] = DU-145 cells (Table 4, Example 13), read-out: IC50 DU-145
[14] = MES-SA cells (Table 4, Example 13), read-out: IC50 MES-SA

Row | Compound | IC50 [1, 12] | IC50 [2, 13] | IC50 [3, 14] | IC50 [4] | further results
1 | Cc1cc(NC(=O)C(=O)c2cc(Cc3ccc(Cl)cc3)n3ccccc23)sn1 [Compound (2)] | 60 nM | – | – | – | –
2 | O=C(Nc1ccc2ncccc2c1)C(=O)c1cc(Cc2ccc(Cl)cc2)n2ccccc12 [Compound (3)] | 100 nM | – | – | – | –
3 | Cc1cc(NC(=O)C(=O)c2cc(Cc3ccc(C#N)cc3)n3cc(F)ccc23)sn1 [Compound (4)] | 50 nM | – | – | – | –
4 | N#Cc1ccc(Cc2cc(C(=O)C(=O)Nc3ccc4ncccc4c3)c3ccccn23)cc1 [Compound (5)] | 100 nM | – | – | – | –
5 | Cc1cc(NC(=O)C(=O)c2cc(Cc3ccccc3)n3ccccc23)sn1 [Compound (6)] | 50 nM | – | – | – | –
6 | Cc1cc(NC(=O)C(=O)c2cc(Cc3ccc(F)cc3)n3ccccc23)sn1 [Compound (7)] | 50 nM | – | – | – | –
7 | COc1ccc(Cc2cc(C(=O)C(=O)Nc3cc(C)ns3)c3ccccn23)cc1 [Compound (8)] | 100 nM | – | – | – | –
8 | Cc1cc(NC(=O)C(=O)c2cc(Oc3ccc(C#N)cc3)n3ccccc23)sn1 [Compound (20), 2-[3-(4-Cyano-phenoxy)-indolizin-1-yl]-N-(3-methyl-isothiazol-5-yl)-2-oxo-acetamide] | – | 50 nM | 50 nM | 50 to 100 nM | –
9 | Cc1cc(NC(=O)C(=O)c2cc(N(C)c3ccc(C#N)cc3)n3ccccc23)sn1 [Compound (21), 2-{3-[(4-Cyano-phenyl)-methyl-amino]-indolizin-1-yl}-N-(3-methyl-isothiazol-5-yl)-2-oxo-acetamide] | – | 50 nM | 50 nM | 50 to 100 nM | –
10 | Cc1ccc2c(C(=O)C(=O)Nc3cc(C)ns3)cc(Cc3ccc(C#N)cc3)n2c1 [Compound (24), 2-[3-(4-Cyano-benzyl)-6-methyl-indolizin-1-yl]-N-(3-methyl-isothiazol-5-yl)-2-oxo-acetamide] | – | 50 nM | 50 nM | 50 to 100 nM | –
11 | Cc1cc(NC(=O)C(=O)c2cc(Cc3ccc(C#N)s3)n3ccccc23)sn1 [Compound (28), 2-[3-(5-cyano-thiophen-2-ylmethyl)-indolizin-1-yl]-N-(3-methyl-isothiazol-5-yl)-2-oxo-acetamide] | – | 100 nM | 100 nM | 50 to 100 nM | –
12 | CC(=O)O[C@H]1C(=O)[C@@]2(C)[C@H]([C@H](OC(=O)c3ccccc3)[C@]3(O)C[C@H](OC(=O)[C@H](O)[C@@H](NC(=O)c4ccccc4)c4ccccc4)C(C)=C1C3(C)C)[C@]1(OC(C)=O)CO[C@@H]1C[C@@H]2O [Taxol, reference compound] | 5000 nM | – | – | – | IC50 [5]: 5 nM; IC50 [6]: 500 nM; IC50 [7]: 5 nM; IC50 [8]: 5 nM; IC50 [9]: 10 nM; IC50 ([2]; DU-145 cells, 72 hours, MTS assay (Table 1), read-out: IC50): 5 nM; IC50 ([3]; MES-SA cells, 72 hours, MTS assay (Table 1), read-out: IC50): 5 nM; IC50 [10]: 5000 nM; IC50 [11]: 1000 to 5000 nM
13 | CC[C@]1(O)C[C@H]2CN(CCc3c([nH]c4ccccc34)[C@@](C(=O)OC)(c3cc4c(cc3OC)N(C=O)[C@H]3[C@@](O)(C(=O)OC)[C@H](OC(C)=O)[C@]5(CC)C=CCN6CC[C@]43[C@@H]65)C2)C1 [Vincristine] | – | – | – | – | IC50 [10]: 5000 nM; IC50 ([1]; MES-SA/Dx5, MES-SA/DX-5 MDR cells (Table 2)): 1000 nM; IC50 [11]: 1000 to 5000 nM
